Data as given in the supplement of paper PMC10307832.

Columns and labels:
Experiment in all cases: relative viability (nuclei count vs DMSO), 5 days (fraction); higher = more cells survive
Dabrafenib + Pemetrexed = compound: CC(C)(C)c1nc(-c2cccc(NS(=O)(=O)c3c(F)cccc3F)c2F)c(-c2ccnc(N)n2)s1 [Dabrafenib] + Nc1nc2[nH]cc(CCc3ccc(C(=O)N[C@@H](CCC(=O)O)C(=O)O)cc3)c2c(=O)[nH]1 [Pemetrexed] (partner 0.2 µM)
In short: (§1)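 Nuclei were stained with Hoechst during a one-step fixation (final 0.05% Triton X-100, 1% formaldehyde, 1 ug/ml Hoechst) carried out 5 days after dosing, then counted on 4× images. The cells, lung cancer lines in 1536-well plates, had been dosed by pin tool the day after seeding with one drug alone or a fixed anchor-drug dose plus five library-drug doses (not always all listed) in √10 steps. Relative viability is the nuclei count in treated wells divided by that in vehicle wells, and each value is the median of duplicate plates.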

VX-702 + OSI-027 = compound: NC(=O)c1ccc(N(C(N)=O)c2c(F)cccc2F)nc1-c1ccc(F)cc1F [VX-702] + COc1cccc2cc(-c3nc([C@H]4CC[C@H](C(=O)O)CC4)n4ncnc(N)c34)[nH]c12 [OSI-027] (partner 0.5 µM)
In short: as §1

VX-702 + Olaparib = compound: NC(=O)c1ccc(N(C(N)=O)c2c(F)cccc2F)nc1-c1ccc(F)cc1F [VX-702] + O=C(c1cc(Cc2n[nH]c(=O)c3ccccc23)ccc1F)N1CCN(C(=O)C2CC2)CC1 [Olaparib] (partner 8 µM)
In short: as §1

VX-702 + Decitabine = compound: NC(=O)c1ccc(N(C(N)=O)c2c(F)cccc2F)nc1-c1ccc(F)cc1F [VX-702] + Nc1ncn([C@H]2C[C@H](O)[C@@H](CO)O2)c(=O)n1 [Decitabine] (partner 2 µM)
In short: as §1

Cell Line | relative viability (Dabrafenib + Pemetrexed; first compound 0.003 µM) | relative viability (Dabrafenib + Pemetrexed; first compound 0.009487 µM) | relative viability (Dabrafenib + Pemetrexed; first compound 0.03 µM) | relative viability (Dabrafenib + Pemetrexed; first compound 0.09487 µM) | relative viability (Dabrafenib + Pemetrexed; first compound 0.3 µM) | relative viability (VX-702 + OSI-027; first compound 0.02 µM) | relative viability (VX-702 + OSI-027; first compound 0.6325 µM) | relative viability (VX-702 + OSI-027; first compound 2 µM) | relative viability (VX-702 + Olaparib; first compound 0.02 µM) | relative viability (VX-702 + Olaparib; first compound 0.2 µM) | relative viability (VX-702 + Olaparib; first compound 0.6325 µM) | relative viability (VX-702 + Olaparib; first compound 2 µM) | relative viability (VX-702 + Decitabine; first compound 0.02 µM) | relative viability (VX-702 + Decitabine; first compound 0.2 µM) | relative viability (VX-702 + Decitabine; first compound 0.6325 µM) | relative viability (VX-702 + Decitabine; first compound 2 µM) | relative viability (VX-702 + OSI-027; first compound 0.2 µM)
NCI-H1666 | 0.787 | 0.864 | 0.877 | 0.97 | 0.865 | 0.937 | 0.789 | 0.635 | 0.804 | 0.754 | 0.826 | 0.733 | 0.655 | 0.691 | 0.751 | 0.536 | –
NCI-H1734 | – | 0.417 | 0.397 | 0.421 | 0.411 | 0.635 | 0.527 | 0.45 | 0.637 | 0.547 | 0.51 | 0.523 | 0.493 | 0.484 | 0.477 | 0.47 | 0.591
NCI-H1755 | 0.36 | 0.427 | 0.395 | 0.47 | 0.424 | 0.857 | 0.721 | 0.718 | 0.911 | 0.897 | 0.799 | 0.876 | 0.699 | 0.732 | 0.703 | 0.797 | 0.829
NCI-H1792 | – | 1.03 | 0.622 | 0.723 | 0.525 | 0.667 | 0.682 | 0.683 | 0.396 | 0.434 | 0.356 | 0.444 | 0.555 | 0.614 | 0.491 | 0.532 | 0.669
NCI-H1793 | – | 1.08 | – | 0.911 | 1.17 | 0.292 | 0.235 | 0.218 | 0.939 | – | 0.858 | 1.01 | 0.545 | – | 0.449 | 0.458 | 0.217
NCI-H1915 | 0.507 | 0.451 | 0.457 | 0.272 | 0.372 | 0.642 | 0.595 | 0.67 | 0.28 | 0.257 | 0.238 | 0.241 | 0.275 | 0.284 | 0.258 | 0.268 | 0.587
NCI-H1944 | 0.569 | 0.58 | 0.587 | 0.444 | 0.668 | 0.396 | 0.39 | 0.206 | 0.413 | 0.435 | 0.432 | 0.403 | 0.431 | 0.437 | 0.46 | 0.431 | 0.398
NCI-H1975 | 0.304 | 0.282 | 0.272 | 0.28 | 0.292 | 0.753 | 0.829 | 0.779 | 0.792 | 0.746 | 0.809 | 1.1 | 0.367 | 0.35 | 0.344 | 0.362 | 0.756
NCI-H1993 | 0.575 | 0.571 | 0.619 | 0.55 | 0.669 | 0.516 | 0.563 | 0.579 | 0.5 | 1.06 | 1.06 | 1.05 | 0.529 | 0.603 | 0.54 | 0.578 | 0.518
